melting point [°C] | Compound
157 to 158 | Cn1c(C(=O)NC(CF)Cc2ccccc2)cc2c(O)cccc21 (single isomer, unassigned; (+)) [Example 29, (+)-N-(1-Fluoromethyl-2-phenylethyl)4-hydroxy-1-methyl-1H-indole-2-carboxamide]
163.5 to 165.5 | Cn1c(C(=O)NC(CF)Cc2ccccc2)cc2c(O)cccc21 (centres unmarked) [Example 23, N-(1-Fluoromethyl-2-phenylethyl) 4-hydroxy-1-methyl-1H-indole-2-carboxamide]

— patent US7064143B1, “Positive modulators of nicotinic receptor agonists” (AstraZeneca AB, priority 2000, dated 2006)
